Values quoted from earlier work, collected in patent US20250360135A1, “COMPOSITIONS COMPRISING DISODIUM 5,10-METHYLENE-(6R)-TETRAHYDROFOLATE” (MERCK PATENT GMBH, priority 2022, published 2025).

Q: Which “purity after 7 hours” value (after 7 hours) does the source give for Nc1nc2c(c(=O)[nH]1)N1CN(c3ccc(C(=O)N[C@@H](CCC(=O)O)C(=O)O)cc3)C[C@H]1CN2 [5,10-methylene-(6R,S)-tetrahydrofolic acid] here?
A: 84%

Q: And the “normalized purity after 24 hours” value (after 24 hours)?
A: 45%

Q: And the “degradation rate (loss of purity per hour)” value (re-constituted lyophilizate, linear regression of stability profile)?
A: 2.2 % purity per hour
